Results as given in US20110124614A1, “Methods And Compositions For The Treatment of Autoimmune Disorders” (priority 2008, published 2011).
Marks after values point to notes of the source that are not given here.

How the values were obtained:
Type in all cases: in vivo, mouse
[1] = tested on: PD-1 expression in CD4^+FoxP3^+ T cells; test: PD-1 expression in CD4+FoxP3+ Treg cells by flow cytometry, WT mice (Example VI); conditions: FIG. 5B
Method: Splenocytes or lymph node cells were harvested from placebo-, E2- or G-1 treated mice after EAE induction as shown in FIG. 2A and stained for CD4, FoxP3 and PD-1. The expression levels of Pd-1 were analyzed by gating on CD4^+FoxP3^+ cells from placebo-, E2, or G-1 treated WT mice. For membrane staining, 1 million cells were stained at 4° C. in the dark with appropriate Ab dilutions in staining buffer (PBS containing 0.5% BSA and 0.02% sodium azide), Intracellular staining for FoxP3 was performed following the protocol recommended by eBioscience. Briefly, 4 million cells were surface stained following standard procedures. After washing, the cells were fixed overnight and washed twice with 0.5 ml of permeabilization buffer. The cells were co-stained for 15 min with FcBlock (Becton Dickinson, Franklin Lake., NJ) and IgG PerCp (eBioscience, San Diego, Calif.) followed 30 min later with fluorescent-labeled antibodies to FoxP3 (eBioscience, San Diego, Calif.) or isotype control. The cells were then washed twice with 2 ml of permeabilization buffer and once with 1 ml of staining buffer, and re-suspended in staining buffer. Flow cytometry data were collected on LSRII and FACSCalibur flow cytometers (BD Bioscience, Franklin Lakes, N.J.), and analyzed using FlowJo software (Tree Star, Ashland, Oreg.). Data represent 50,000-100,000 events unless otherwise noted. […] The histogram overlay compares the MFI of PD-1 in CD4^+FoxP3^+ T cells from different treatment groups. The bar charts show the average percentages of PD-1^+ CD4^+FoxP3^+ T cells and the average MFI of PD-1 in CD4^+FoxP3^+ T cells from all mice in each grip[/*P<0.05 or **P<0.01 compared to placebo control.

[2] = tested on: T cells of GPR30KO EAE mice; test: Ex vivo T cell proliferation to mMOG-35-55, GPR30KO mice
Method: Splenocytes and lymph node cells were harvested ex-vivo from G-1 and E2 implanted mice and cultured in a 96-well flat bottom tissue culture plate at 4×10^5 cells/well in stimulation medium in the presence of APC, irradiated (2500 rad) syngenic thymocytes at a ration of 1:10 (T:APCs) wither with or without mMog 35-55 peptide at varying concentrations. The cells were incubated for 3 days at 37° C. in 7% CO2 and pulsed with 0.5 μCi of [^3H] thymidine (Perkin-Elmer, Boston, Mass.) for the final 18 h of incubation. The cells were harvested onto glass fiber filters, and incorporated radioactivity was measured by a liquid scintillation counter. The cpm values (mean±SD) were calculated from triplicate wells. Stimulation index (SI) was calculated by dividing the experimental cpm by the control cpm.

EAE in GPR30KO mice = test: EAE clinical scoring, G-1 or E2 pellets, GPR30KO mice (Example IV)
EAE in PD-1KO mice = test: EAE clinical scoring, G-1 or E2 pellets, PD-1KO mice (Example IX)
EAE in wild-type B6 mice [3] = test: EAE clinical scoring, daily s.c. injection of G-1 or E2, wild-type B6 mice
EAE in wild-type B6 mice [4] = test: EAE clinical scoring, G-1 vs E2 pellets at different doses, wild-type B6 mice (Example III); conditions: for CDI / Daily / Mortality / Onset / Peak / Incidence: 34 days
[5] = tested on: CNS infiltration, demyelination and axonal damage in spinal cord of WT EAE mice; test: Spinal cord histology (H&E, LFB-PAS, SMI312, SMI32), WT EAE mice
Text: Spinal cords were dissected out for histology. Intact spinal columns were removed and dissected after fixation in 4% paraformaldehyde, dehydrated and embedding in paraffin. To examine neuroinflammation, the sections were stained with hematoxylin and eosin (H&E). To examine demyelination, the sections were stained with Luxon fast blue plus periodic acid Schiff (LFB-PAS). The mice from the clinical experiment shown in FIG. 2A were euthanized at the end of the experiment and spinal cords were dissected out for histology. Intact spinal cords were removed and dissected after fixation in 4% paraformaldehyde, dehydrated and embedding in paraffin. To examine neuroinflammation, the sections were stained with hematoxylin and eosin (H&E). To examine demyelination, the sections were stained with Luxon fast blue plus periodic acid Schiff (LFB-PAS). To visualize axonal damage, spinal cords were fixed in 4% paraformaldehyde (maass/volume in PBS, pH 7.4) at 4° C. for at least 48 h. The spinal cords were dissected out from the columns, cut into sections 1-2 mm in length from the sampled thoracic or […] cords, dehydrated and embedded in paraffin blocks. Then, 10 μm thick sections were cut from paraffin blocks and mounted onto pre-cleaned microscope slides. The sections were dewaxed and rehydrated sequentially by xylene (2 min), gradient ethanol (100%, 95%, 85%, 2 min each) and PBS (5 min) and then cooked (120° C.) in antigen unmasking agent Trilogy® (Cell Marque, Hot Springs, Ark.) for 10 min in a pressure steamer. […] The slides were counterstained with hematoxylin for 30-60 s to visualize nuclei, washed with tap water, dehydrated, and mounted with Cytoseal™ XYL mounting medium (Richard-Allan Scientific, Kalamazoo, Mich.). The sections were analyzed by light microscopy after staining and recorded with a digital camera.

[6] = tested on: PD-L1 and PD-L2 expression; test: PD-L1 and PD-L2 expression on APCs and T cells by flow cytometry (Example VIII); conditions: treated WT EAE mice, FIG. 5C
[7] = GPR30KO, 2.5 mg/60 day E2 pellet, 29 days
[8] = PD-1KO, 2.5 mg/60 day E2 pellet, 20 days
[9] = E2 injection, 1 μg/mouse/day s.c., 20 days

In the case of `C[C@]12CC[C@@H]3c4ccc(O)cc4CC[C@H]3[C@@H]1CC[C@@H]2O` [E2, 17β estradiol], the “staining intensity of PD-1 in CD4^+FoxP3^+ cells” value ([1]; spleen of treated WT mice) is reported as “strongly enhanced”, the “conversion of CD4^+FoxP3^+PD-1^− cells to PD-1^+ cells” value ([1]; treated WT mice) is reported as “converted a majority” and the “T-cell responses to MOG peptide” value ([2]; E2 treatment, FIG. 1C) is reported as “similarly reduced”. For the same compound, the “T cell proliferation to mMog-35-55” value ([2]; Example IV) was “Neither G-1 nor E2 affected”, the “protective effect against EAE (in words)” value (EAE in GPR30KO mice; E2 2.5 mg/60 day pellet, GPR30KO mice) was “only partially offset by the absence of GPR30” and the CDI (EAE in GPR30KO mice; [7]) was 17.2 ± 17.4. The Daily (EAE in GPR30KO mice; [7]) was 3.7 ± 1.3, the Mortality (EAE in GPR30KO mice; [7]) was 0/7 and the Onset (EAE in GPR30KO mice; [7]) was 18.0 ± 1.4. For the same compound, the Peak (EAE in GPR30KO mice; [7]) was 2.5 ± 2.3, the Incidence (EAE in GPR30KO mice; GPR30KO, 2.5 mg/60 day release E2 pellet, 29 days) was 4/7 and the “protection against clinical EAE (in words)” value (EAE in PD-1KO mice; E2 2.5 mg/60 day pellet, PD-1KO mice) was “retained partial efficacy”. The CDI (EAE in PD-1KO mice; [8]) was 16.4 ± 6.3, the Daily (EAE in PD-1KO mice; [8]) was 1.5 ± 0.6 and the Mortality (EAE in PD-1KO mice; [8]) was 0/5. The Onset (EAE in PD-1KO mice; [8]) was 16.4 ± 0.9, the Peak (EAE in PD-1KO mice; [8]) was 4.1 ± 0.8 and the Incidence (EAE in PD-1KO mice; PD-1KO, 2.5 mg/60 day release E2 pellet, 20 days) was 5/5. The “protection against EAE (in words)” value (EAE in wild-type B6 mice [3]; E2 1 μg/mouse/day s.c. injections) was “partially protective”, the CDI (EAE in wild-type B6 mice [3]; [9]) was 10.5 ± 13.9 and the Daily (EAE in wild-type B6 mice [3]; [9]) was 2.3 ± 0.3. The Incidence (EAE in wild-type B6 mice [3]; [9]) was 3/8*, the Mortality (EAE in wild-type B6 mice [3]; [9]) was 1/8 and the Onset (EAE in wild-type B6 mice [3]; [9]) was 15.3 ± 1.5. For the same compound, the Peak (EAE in wild-type B6 mice [3]; [9]) was 2.3 ± 2.9, the CDI (EAE in wild-type B6 mice [4]; 0.025 mg E2 pellet) was 37.0 ± 21.6 and the Daily (EAE in wild-type B6 mice [4]; 0.025 mg E2 pellet) was 1.7 ± 1.0. For the same compound, the Mortality (EAE in wild-type B6 mice [4]; 0.025 mg E2 pellet) was 0/5, the Onset (EAE in wild-type B6 mice [4]; 0.025 mg E2 pellet) was 14.8 ± 0.5 and the Peak (EAE in wild-type B6 mice [4]; 0.025 mg E2 pellet) was 2.8 ± 1.6. The Incidence (EAE in wild-type B6 mice [4]; 0.025 mg/60 day release E2 pellet) was 4/5, the CDI (EAE in wild-type B6 mice [4]; 0.1 mg E2 pellet) was 9.1 ± 14.8 and the Daily (EAE in wild-type B6 mice [4]; 0.1 mg E2 pellet) was 0.3 ± 0.6. For the same compound, the Mortality (EAE in wild-type B6 mice [4]; 0.1 mg E2 pellet) was 0/10, the Onset (EAE in wild-type B6 mice [4]; 0.1 mg E2 pellet) was 21.0 ± 6.1 and the Peak (EAE in wild-type B6 mice [4]; 0.1 mg E2 pellet) was 0.8 ± 1.2. For the same compound, the Incidence (EAE in wild-type B6 mice [4]; 0.1 mg/60 day release E2 pellet) was 3/10**, the CDI (EAE in wild-type B6 mice [4]; 2.5 mg E2 pellet) was 0** and the Daily (EAE in wild-type B6 mice [4]; 2.5 mg E2 pellet) was 0**. The Mortality (EAE in wild-type B6 mice [4]; 2.5 mg E2 pellet) was 0/7, the Peak (EAE in wild-type B6 mice [4]; 2.5 mg E2 pellet) was 0** and the Incidence (EAE in wild-type B6 mice [4]; 2.5 mg/60 day release E2 pellet) was 0/7**. The “protection from clinical EAE (in words)” value (EAE in wild-type B6 mice [4]; 2.5 mg/60 day release E2 pellets) was “completely protected”, the “pathological signs of EAE in CNS (immune cell infiltration and demyelination)” value ([5]; E2-treated WT mice, Example II, FIG. 1B) was “no pathological signs of EAE” and the “immune cell infiltration and demyelination in the CNS (H&E, LFB-PAS)” value ([5]; WT mice of FIG. 2A experiment, FIG. 4 upper panels) was “markedly ameliorated”. For the same compound, the “axons in the spinal cords (SMI312 staining)” value ([5]; WT mice, FIG. 4 lower left panel) was “well preserved”, the “axonal damage in spinal cord sections” value ([5]; WT mice, FIG. 4 lower panels) was “reduced the level of axonal damage” and the “SMI32 staining in white matter of spinal cords (ongoing axonal damage)” value ([5]; WT mice, FIG. 4 lower right panel) was “much less SMI32 staining”. The “PD-L1 expression on B cells and macrophages” value [6] was “upregulated” and the “expression of PD-L2” value [6] was “essentially no effect”.
